The source of these data is ChEMBL document CHEMBL4765314, “Rational design and biological evaluation of gemfibrozil modified Xenopus GLP-1 derivatives as long-acting hypoglycemic agents” (Eur J Med Chem, 2020).

The source made the active and inactive calls. The rule behind the calls is not given here. Starred links: 1 amine or outer side, 2 acyl side, 3 side chain; linkers in the order of their positions; H or OH if unused. Non-standard residues stand in square brackets, D forms with d. Groups on a side chain read outwards from the residue. ξ: configuration not given here. *: point of attachment. X1 = Cc1ccc(C)c(OCCCC(C)(C)C(=O)OCC(=O)NCCCCCCCCCC(NC(=O)COC(=O)C(C)(C)CCCOc2cc(C)ccc2C)C(=O)*)c1; X2 = Cc1ccc(C)c(OCCCC(C)(C)C(=O)OCC(=O)NCCCCC(NC(=O)COC(=O)C(C)(C)CCCOc2cc(C)ccc2C)C(=O)*)c1; Glycoloyl(O-gemfibrozoyl) = Cc1ccc(C)c(OCCCC(C)(C)C(=O)OCC(=O)*)c1; γGlu = O=C(O)[C@H](CCC(=O)[*:2])N[*:1]; Aun = NCCCCCCCCCCC(=O)O; ξK = NCCCCC(N)C(=O)O; Ahx = NCCCCCC(=O)O

For data set [1], the target named is Glucagon-like peptide 1 receptor (Homo sapiens, UniProt P43220). The experiment in a line: Agonist activity at human GLP-1R expressed in HEK293 cells assessed as stimulation of cAMP accumulation incubated for 60 mins by HTRF assay. It counts as functional, cell-based.
Glucagon-like peptide 1 receptor, sequence (P43220 whole entry): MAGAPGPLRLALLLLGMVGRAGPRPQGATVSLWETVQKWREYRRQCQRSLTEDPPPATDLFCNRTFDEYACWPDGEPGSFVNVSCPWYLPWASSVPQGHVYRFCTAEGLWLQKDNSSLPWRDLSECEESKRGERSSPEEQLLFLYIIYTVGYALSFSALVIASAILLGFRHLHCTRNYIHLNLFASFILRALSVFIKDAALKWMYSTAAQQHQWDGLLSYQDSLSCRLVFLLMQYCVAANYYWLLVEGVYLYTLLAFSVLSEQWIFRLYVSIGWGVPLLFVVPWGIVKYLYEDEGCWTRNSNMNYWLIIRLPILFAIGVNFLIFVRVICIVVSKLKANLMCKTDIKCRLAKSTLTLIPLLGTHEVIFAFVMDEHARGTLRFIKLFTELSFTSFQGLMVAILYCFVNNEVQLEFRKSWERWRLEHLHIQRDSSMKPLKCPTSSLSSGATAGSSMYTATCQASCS
The test system of data set [2] is Mus musculus. The experiment in a line: Hypoglycemic activity in 12 hrs fasted ICR mouse assessed as reduction in blood glucose level at 25 nmol/kg, ip dosed 30 mins before glucose challenge measured up to 120 mins by OGTT method. It counts as functional, organism-based. Conditions: time 150.0 min.
Data set [3] is described as follows: Stability in Sprague-Dawley rat plasma assessed as half life at 1000 ng/ml measured up to 48 hrs under shaking condition by LC-MS/MS analysis. The class given is ADME, cell-free.
A further data set deals with Albumin (Homo sapiens, UniProt P02768). Description: Binding affinity to human serum albumin assessed as retention factor by HPAC method. It counts as ADME.
Albumin, sequence (P02768 whole entry): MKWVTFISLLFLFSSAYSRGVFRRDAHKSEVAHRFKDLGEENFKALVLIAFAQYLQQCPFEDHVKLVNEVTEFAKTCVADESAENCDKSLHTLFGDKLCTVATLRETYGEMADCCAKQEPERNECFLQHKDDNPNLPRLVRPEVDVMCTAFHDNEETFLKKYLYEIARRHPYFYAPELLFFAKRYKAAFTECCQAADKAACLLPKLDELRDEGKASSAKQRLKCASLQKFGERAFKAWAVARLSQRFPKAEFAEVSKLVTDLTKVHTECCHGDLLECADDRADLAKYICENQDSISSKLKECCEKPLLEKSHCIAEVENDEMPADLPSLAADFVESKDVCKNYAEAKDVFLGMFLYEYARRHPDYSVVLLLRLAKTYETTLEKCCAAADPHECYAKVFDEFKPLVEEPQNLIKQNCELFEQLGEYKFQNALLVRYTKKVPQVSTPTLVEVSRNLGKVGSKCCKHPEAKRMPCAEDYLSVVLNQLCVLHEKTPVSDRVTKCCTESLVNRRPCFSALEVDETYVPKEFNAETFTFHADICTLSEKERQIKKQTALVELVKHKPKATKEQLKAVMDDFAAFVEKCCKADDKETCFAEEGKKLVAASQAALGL
In data set [4] the test system is Mus musculus. Description: Hypoglycemic activity in non-fasted db/db […] mouse assessed as reduction in blood glucose level at 25 nmol/kg, ip dosed 30 mins before glucose challenge measured up to 120 mins by OGTT method. It counts as functional, organism-based.
Data set [5] has as its system Mus musculus. Description: Hypoglycemic activity in 16 hrs fasted db/db mouse assessed as reduction in blood glucose level at 25 nmol/kg, ip treated 30 mins before glucose challenge and measured at 0 to 24 hrs by multiple OGTT. It counts as functional, organism-based. As to conditions: time 1470.0 min.
In data set [6] the test system is Mus musculus. Description: Inhibition of solid-phase gastric emptying in 12 hrs fasted ICR mouse assessed reduction in gastric emptying rate at 25 nmol/kg, ip allowed for food intake 1 hrs and measured after 4 hrs […]. The class given is functional. Also on record: scale not given: the % may be the effect or the level left.
The test system of data set [7] is Mus musculus. The experiment in a line: Reduction in body weight in C57BL/6 mouse model of diet induced obesity at 25 nmol/kg, sc administered every two days for 21 days relative to control. It counts as functional, organism-based. Further details: scale not given: the % may be the effect or the level left. Conditions: time 21.0 day.
Data set [8] deals with Mus musculus. Description: Reduction in body fat content in C57BL/6 mouse model of high-fat diet induced obesity at 25 nmol/kg, sc administered every two days for 21 days relative to control. The class given is functional, organism-based. Also on record: scale not given: the % may be the effect or the level left. As to conditions: time 21.0 day.
Data set [9] concerns Mus musculus. Description: Reduction in serum triglyceride in C57BL/6 mouse model of high-fat diet induced obesity at 25 nmol/kg, sc administered every two days for 21 days. As to conditions: time 21.0 day. The class given is functional, organism-based.
Data set [10] has as its system Mus musculus. Description: Reduction in serum total cholesterol in C57BL/6 mouse model of high-fat diet induced obesity at 25 nmol/kg, sc administered every two days for 21 days. It counts as functional, organism-based. Conditions: time 21.0 day.
Data set [11] has as its system Mus musculus. The experiment in a line: Increase in serum HDL level in C57BL/6 mouse model of high-fat diet induced obesity at 25 nmol/kg, sc administered every two days for 21 days. The class given is functional, organism-based. As to conditions: time 21.0 day.
For data set [12], the system named is Mus musculus. Description: Reduction in serum LDL level in C57BL/6 mouse model of high-fat diet induced obesity at 25 nmol/kg, sc administered every two days for 21 days. The class given is functional, organism-based. As to conditions: time 21.0 day.
The test system of data set [13] is Mus musculus. The experiment in a line: Effect in normal chow diet fed C57BL/6 mouse assessed as reduction in body weight increase at 25 nmol/kg, sc administered every two days for 21 days (reference value: 10.8%). It counts as functional, organism-based. Conditions: time 21.0 day. Further details: scale not given: the % may be the effect or the level left.
The subject of data set [14] is Mus musculus. The experiment in a line: Anorectic effect in normal chow diet fed C57BL/6 mouse assessed as reduction in food intake at 25 nmol/kg, sc administered every two for 21 days. The class given is functional, organism-based. As to conditions: time 21.0 day.
The subject of data set [15] is Mus musculus. The experiment in a line: Inhibition of fat mass gain in normal chow diet fed C57BL/6 mouse at 25 nmol/kg, sc administered every two days for 21 days. It counts as functional, organism-based. As to conditions: time 21.0 day.
The test system of data set [16] is Mus musculus. Description: Hypoglycemic activity in normal chow diet fed C57BL/6 mouse assessed as fasting blood glucose at 25 nmol/kg, sc administered every two for 21 days. It counts as functional, organism-based. Conditions: time 21.0 day.
Data set [17] concerns Mus musculus. The experiment in a line: Improvement in glucose tolerance in standard chow diet fed C57BL/6 mouse at 25 nmol/kg, sc administered every 2 days for 21 days. Conditions: time 21.0 day. The class given is functional, organism-based.
In data set [18] the test system is Mus musculus. Description: Improvement in glucose tolerance in db/db mouse at 25 nmol/kg, sc administered every 2 days for 42 days by OGTT. Conditions: time 42.0 day. The class given is functional, organism-based.
Data set [19] deals with Mus musculus. The experiment in a line: Reduction in HbA1c level in db/db mouse at 25 nmol/kg, sc administered every two days for 42 days by OGTT. It counts as functional, organism-based. Conditions: time 42.0 day.
In data set [20] the test system is Mus musculus. The experiment in a line: Improvement in glucose tolerance in db/db mouse assessed as time for superior hypoglycemic effect by measuring glucose AUC at 25 nmol/kg, sc administered twice daily for 42 days by OGTT. The class given is functional, organism-based. As to conditions: time 42.0 day.

In the case of “H-HGEGTYTNDVTEYLEEEAAK([γGlu-Aun-Glycoloyl(O-gemfibrozoyl)])EFIEWLIKGKPSSGAPPSKKKKKK-OH”, the EC50 in data set [1] was found to be 0.11 nM. In the data set with Mus musculus [2], the outcome was Active. Also, the half-life at 1000 ng/ml in [3] is 1210 min. Also, the K on Albumin was found to be 7.3.
In the case of “H-HGEGTYTNDVTEYLEEEAAK([γGlu-X1])EFIEWLIKGKPSSGAPPSKKKKKK-OH”, the EC50 in [1] stood at 0.31 nM. The result in the data set on Mus musculus [2] was inactive. Further, the half-life at 1000 ng/ml in [3] was 2030 min. Moreover, the K on Albumin is 12.1.
The matching figures for “H-HGEGTYTNDVTEYLEEEAA[ξK]([γGlu-Ahx-Glycoloyl(O-gemfibrozoyl)])EFIEWLIKGKPSSGAPPSKKKKKK-OH”: 0.053 nM, “Active”, 978 min and 6.4.
Turning to “H-HGEGTYTNDVTEYLEEEAA[ξK]([γGlu-X2])EFIEWLIKGKPSSGAPPSKKKKKK-OH”, the EC50 in [1] worked out at 0.091 nM. Besides, the result in the data set with Mus musculus [2] and with Mus musculus [4] was Active. Also, the half-life at 1000 ng/ml in data set [3] was 1770 min. Also, the K at Albumin was 11.2.
Regarding SEMAGLUTIDE, the outcome in the data set on Mus musculus [5], with Mus musculus [9], with Mus musculus [10], in the data set with Mus musculus [12], in the data set on Mus musculus [14] and in the data set on Mus musculus [15] was Active. In addition, the result with Mus musculus [18] and in the data set on Mus musculus [19] was Active. The Activity in the data set with Mus musculus [6] is 52%; in the data set with Mus musculus [7] it was 13.4%; in the data set with Mus musculus [8], 25.5%; with Mus musculus [13] it was 6.7%. The outcome in the data set with Mus musculus [11], in the data set on Mus musculus [16] and in the data set with Mus musculus [17] was inactive. In addition, the TIME in the data set on Mus musculus [20] stood at 1680 h.
